Assays:
clinical = settings: human, in vivo, iv, 0.4 ug/kg
Protocol: Upon entering the scanner, an […] was started in an antecubital vein and subjects were randomly assigned to receive either placebo (saline) or RG1068 (synthetic human secretin). Drug was administered at 0.4 μg/kg via the […] over 1 min. A 3-way stop-clock device with a heparinized line was used to collect blood samples immediately preceding the infusion of RG1068 or placebo and at variable points post infusion for drug pharmacokinetic analysis. Vital signs were monitored for at least 20 minutes after infusion. Prior to the infusion, subjects completed three affective challenge paradigms which had been explained to them before entering the scanner. Subjects completed the same paradigms one hour following infusion with either placebo or RG1068 for pre/post comparison (FIG. 1).
Blood samples were taken over the first 60 minutes post dosing, and samples from subjects receiving RG1068 were used to quantify secretin blood levels. […] Both the Cmax and the elimination rate are consistent with values observed after similar secretin infusions in adults (Christ et al., 1988). Whole brain T2 measures were obtained to verify that no global metabolic effect occurred with the administration of secretin.

amygdala [1] = settings: healthy subjects; cited from earlier work
amygdala [2] = settings: depressed patients, versus baseline evaluation; cited from earlier work

**Q.** With `CC(C)C[C@H](NC(=O)CNC(=O)[C@H](CCC(N)=O)NC(=O)[C@H](CC(C)C)NC(=O)[C@H](CC(C)C)NC(=O)[C@H](CCCNC(=N)N)NC(=O)[C@H](CCC(N)=O)NC(=O)[C@H](CC(C)C)NC(=O)[C@H](CCCNC(=N)N)NC(=O)[C@H](C)NC(=O)CNC(=O)[C@H](CCC(=O)O)NC(=O)[C@H](CCCNC(=N)N)NC(=O)[C@H](CC(C)C)NC(=O)[C@H](CCCNC(=N)N)NC(=O)[C@H](CO)NC(=O)[C@H](CC(C)C)NC(=O)[C@H](CCC(=O)O)NC(=O)[C@H](CO)NC(=O)[C@@H](NC(=O)[C@H](Cc1ccccc1)NC(=O)[C@@H](NC(=O)CNC(=O)[C@H](CC(=O)O)NC(=O)[C@H](CO)NC(=O)[C@@H](N)Cc1c[nH]cn1)[C@@H](C)O)[C@@H](C)O)C(=O)N[C@H](C(N)=O)C(C)C` [Secretin, secretin] as the molecule, how does the Cmax (clinical) read?
**A.** 5.1 ng/mL

**Q.** What about the half-life (clinical) of the same molecule?
**A.** 3.7 min

**Q.** For `C[C@H](N)Cc1ccccc1` [dextroamphetamine], which “amygdalar responsivity to facial affect” value (amygdala [1]) is on record?
**A.** increased amygdalar responsivity

**Q.** Which “amygdalar activation to positive stimuli after treatment” value (amygdala [2]) does the source give for `COc1ccc(C(CN(C)C)C2(O)CCCCC2)cc1` (stereo not shown) [venlafaxine] here?
**A.** significant increase in activation

From patent publication US8524665B2, “Use of secretin in treatments of disorders associated with the amygdala” (The McLean Hospital Corporation, priority 2003, dated 2013)
